For experiment [1], the target named is Signal transducer and activator of transcription 3 (Homo sapiens, UniProt P40763). Kind of experiment: Inhibition of STAT3 transcriptional activity in human HaCaT cells after 6 hrs by luciferase reporter gene assay. For orientation: A reporter such as luciferase makes a cellular process visible.
Experiment [2] deals with T1, Nuclear factor erythroid 2-related factor 2 (Homo sapiens, UniProt Q16236).
T1 sequence (Q16236 whole entry): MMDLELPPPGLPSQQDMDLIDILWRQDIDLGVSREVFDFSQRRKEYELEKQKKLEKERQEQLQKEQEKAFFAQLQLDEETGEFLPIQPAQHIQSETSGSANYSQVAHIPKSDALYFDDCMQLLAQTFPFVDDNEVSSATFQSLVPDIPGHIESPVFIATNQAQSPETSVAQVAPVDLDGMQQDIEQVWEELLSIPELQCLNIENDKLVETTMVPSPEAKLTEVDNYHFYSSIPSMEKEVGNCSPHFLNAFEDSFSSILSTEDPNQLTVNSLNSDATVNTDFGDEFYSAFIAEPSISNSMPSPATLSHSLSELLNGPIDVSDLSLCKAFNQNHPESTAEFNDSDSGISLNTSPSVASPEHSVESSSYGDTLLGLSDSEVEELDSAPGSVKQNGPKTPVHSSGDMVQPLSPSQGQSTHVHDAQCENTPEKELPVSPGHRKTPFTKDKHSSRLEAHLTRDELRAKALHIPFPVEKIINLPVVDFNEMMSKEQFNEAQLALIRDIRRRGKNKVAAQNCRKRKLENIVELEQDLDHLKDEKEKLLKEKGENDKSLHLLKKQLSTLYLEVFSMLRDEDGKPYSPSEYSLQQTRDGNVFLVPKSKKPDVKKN
Kind of experiment: Activation of Nrf2 transcriptional activity in human LNCaP cells after 6 hrs by luciferase reporter gene assay relative to tert-butylhydroquinone.

Signal transducer and activator of transcription 3, sequence (P40763 whole entry): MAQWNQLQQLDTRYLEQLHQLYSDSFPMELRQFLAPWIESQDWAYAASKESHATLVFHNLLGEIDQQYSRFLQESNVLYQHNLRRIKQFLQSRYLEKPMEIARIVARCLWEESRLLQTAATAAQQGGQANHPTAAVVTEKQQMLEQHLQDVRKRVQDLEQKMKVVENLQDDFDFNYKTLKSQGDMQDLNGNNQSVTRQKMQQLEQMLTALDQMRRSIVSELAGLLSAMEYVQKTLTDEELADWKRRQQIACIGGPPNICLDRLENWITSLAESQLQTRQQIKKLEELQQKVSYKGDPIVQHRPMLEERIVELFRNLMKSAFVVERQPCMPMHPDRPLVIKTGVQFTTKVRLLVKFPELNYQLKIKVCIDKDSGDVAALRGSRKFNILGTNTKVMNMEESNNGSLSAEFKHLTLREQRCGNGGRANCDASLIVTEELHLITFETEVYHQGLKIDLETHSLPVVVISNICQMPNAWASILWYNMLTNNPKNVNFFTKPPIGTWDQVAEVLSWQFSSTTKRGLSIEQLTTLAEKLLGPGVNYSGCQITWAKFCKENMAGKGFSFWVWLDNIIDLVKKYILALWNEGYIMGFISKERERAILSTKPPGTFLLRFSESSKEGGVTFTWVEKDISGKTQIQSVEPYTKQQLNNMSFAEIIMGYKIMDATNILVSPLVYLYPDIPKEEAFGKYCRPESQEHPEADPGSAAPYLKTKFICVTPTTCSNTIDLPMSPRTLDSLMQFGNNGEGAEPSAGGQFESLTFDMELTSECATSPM

Broadly, the IC50 is the point on the concentration scale where inhibition reaches its midpoint. Broadly, the EC50 is the concentration that produces a half-maximal response. Read a low EC50 as a more potent agent. `COc1cc(/C=C/C(=O)/C=C/c2cc(F)c(O)c(OC)c2)cc(F)c1O` displayed an IC50 in experiment [1] of 19.4 µM. The EC50 in experiment [2] was 3.1 µM. In experiment [1], `COc1cc(/C=C/c2cc(-c3ccc(O)c(OC)c3)[nH]n2)ccc1O` displayed an IC50 of 18.2 µM. On the same count and under the same terms, the result for `COc1cc(/C=C/C(=O)CC(=O)c2ccc(O)c(OC)c2)ccc1O` reads 35.7 µM.

`COc1cc(/C=C/C(=O)/C=C/c2cc(CC=C(C)C)c(O)c(OC)c2)cc(CC=C(C)C)c1O` registered an IC50 in experiment [1] of 22.4 µM.

Regarding `COc1cc(C=CC(=O)CC(=O)C=Cc2ccc(O)c(OC)c2)ccc1O`, it took 9.9 µM to reach a half-maximal effect in experiment [2] (EC50). Molecule `COc1cc(/C=C/C(=O)CC(=O)/C=C/c2cc(F)c(O)c(OC)c2)cc(F)c1O` returned an IC50 in experiment [1] of 15.6 µM. Besides, the response in experiment [2] was half-maximal at 8.6 µM (EC50). The corresponding values for `COc1cc(/C=C/C(=O)/C=C/c2ccc(O)c(OC)c2)ccc1O` [(1E,4E)-1,5-Bis-(4-hydroxy-3-methoxy-phenyl)-penta-1,4-dien-3-one] are 6 µM and 0.9 µM. `COc1cc(CCC(=O)CC(=O)CCc2cc(CCC(C)C)c(O)c(OC)c2)cc(CCC(C)C)c1O`: in experiment [1], the IC50 was above 50 µM. As to `COc1cc(/C=C/C(=O)CC(=O)/C=C/c2cc(CC=C(C)C)c(O)c(OC)c2)cc(CC=C(C)C)c1O`, in experiment [1], the half-maximal inhibitory concentration (IC50) is above 50 µM.

For the molecule `COc1cc(CCC(=O)CC(=O)CCc2ccc(O)c(OC)c2)ccc1O` [1,7-Bis-(4-hydroxy-3-methoxy-phenyl)-heptane-3,5-dione], the concentration for half-maximal inhibition (IC50) in experiment [1] is above 50 µM. Same read-out and setting: with `COc1cc(/C=C/c2cc(/C=C/c3ccc(O)c(OC)c3)[nH]n2)ccc1O` [4-(2-(5-(4-hydroxy-3-methoxystyryl)-1H-pyrazol-3-yl)vinyl)-2-methoxyphenol] the figure was 16.2 µM; with `COc1cc(/C=C/c2cc(/C=C/c3cc(CC=C(C)C)c(O)c(OC)c3)[nH]n2)cc(CC=C(C)C)c1O`, above 50 µM.

These data come from BindingDB's records for doi:10.1021/jm500308c (University Jena, 2014).
